Reference: US6806292B2, “Substituted imide derivatives” (Bayer Aktiengesellschaft, priority 2000, dated 2004)

What was measured:
Meloidogyne incognita = test: Meloidogyne test; assay type: in vivo; details: 20 ppm, after 2 weeks, lettuce in sand
Experimental: To produce a suitable preparation of active compound, 1 part by weight of active compound is mixed with the stated amounts of solvent and emulsifier, and the concentrate is diluted with water to the desired concentration.
Containers are filled with sand, solution of active compound, Meloidogyne incognita egg/larvae suspension and lettuce seeds. The lettuce seeds germinate and the plants develop. Galls form on the roots.
After 2 weeks, the nematicidal activity is determined by the gall formation in %. 100% means that no galls have been found; 0% activity means that the number of galls on the treated plants corresponds to that of the untreated control.

[1] = log P determination by HPLC (EEC directive 79/831 Annex V.A8); assay type: physicochemical; details: pH 2.3; HPLC gradient method, acetonitrile/0.1% aqueous phosphoric acid
Experimental: [The log P values were determined in accordance with EEC directive 79/831 Annex V.A8 by HPLC (gradient method, acetonitrile/0.1% aqueous phosphoric acid)]

chromatographic logP [1]: 2.19
Structure (SMILES): C/C(=N\C#N)NC(C)C1CCCCC1 (stereo not drawn) [Example 1, R-(−)-N-cyano-N′-cyclohexyl-eth-1-yl-ethane-imid-amide]
kill (nematicidal activity by gall formation) (Meloidogyne incognita): 100%
